Here are results for 32 compounds from ChEMBL document CHEMBL4376868, “Structure-Activity Relationship Study of Novel 6-Aryl-2-benzoyl-pyridines as Tubulin Polymerization Inhibitors with Potent Antiproliferative Properties” (J Med Chem, 2020).

For orientation: IC50 means the midpoint of a concentration-inhibition curve. Higher therefore signals weaker potency in that assay.

Calls of active or inactive are those of the source. No cut-off for these calls is given here.

For experiment [1], the system named is MDA-MB-231. The experiment in a line: Antiproliferative activity against human MDA-MB-231 cells measured after 72 hrs by MTS assay. To be noted: MDA-MB-231, 72 h. The experiment is classed as functional, cell-based.
In experiment [2] the test system is MDA-MB-453. The experiment in a line: Antiproliferative activity against human MDA-MB-453 cells measured after 72 hrs by MTS assay. The experiment is classed as functional, cell-based. Conditions: MDA-MB-453, 72 h. In general terms: Formazan colour is commonly taken as a measure of viable cells.
In experiment [3] the test system is SK-BR-3. The experiment can be described thus: Antiproliferative activity against human SK-BR-3 cells measured after 72 hrs by MTS assay. The experiment is classed as functional, cell-based. Conditions: SK-BR-3, 72 h.
Experiment [4] relates to A-375. The experiment in a line: Antiproliferative activity against human A375 cells measured after 72 hrs by MTS assay. It counts as functional, cell-based. Conditions: A-375, 72 h.
The test system of experiment [5] is M14. The experiment in a line: Antiproliferative activity against human M14 cells measured after 72 hrs by MTS assay. The experiment is classed as functional, cell-based. To be noted: M14, 72 h.
Experiment [6] deals with RPMI-7951. The experiment in a line: Antiproliferative activity against human RPMI7951 cells measured after 72 hrs by MTS assay. The experiment is classed as functional, cell-based. Conditions: RPMI-7951, 72 h.
Experiment [7] concerns the target Tubulin (Sus scrofa) (UniProt P02554+P02550). The experiment in a line: Inhibition of porcine brain tubulin polymerization at 10 uM measured at 30 secs interval for 65 mins by spectrophotometric method.

Sequence of Tubulin (Sus scrofa) (P02550 whole entry, looked up): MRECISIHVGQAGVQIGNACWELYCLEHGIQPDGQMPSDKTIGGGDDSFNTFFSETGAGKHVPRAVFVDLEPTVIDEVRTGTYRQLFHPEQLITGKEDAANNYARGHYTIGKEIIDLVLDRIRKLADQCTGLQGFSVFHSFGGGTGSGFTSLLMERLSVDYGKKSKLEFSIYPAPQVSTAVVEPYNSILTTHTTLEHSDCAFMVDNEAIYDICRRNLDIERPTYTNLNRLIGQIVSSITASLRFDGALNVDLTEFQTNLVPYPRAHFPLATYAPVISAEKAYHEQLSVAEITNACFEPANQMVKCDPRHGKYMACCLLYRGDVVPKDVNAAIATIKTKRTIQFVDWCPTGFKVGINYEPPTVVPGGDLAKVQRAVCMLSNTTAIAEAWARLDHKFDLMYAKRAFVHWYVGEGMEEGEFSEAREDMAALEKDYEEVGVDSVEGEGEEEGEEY
Sequence of Tubulin (Sus scrofa) (P02554 whole entry, looked up): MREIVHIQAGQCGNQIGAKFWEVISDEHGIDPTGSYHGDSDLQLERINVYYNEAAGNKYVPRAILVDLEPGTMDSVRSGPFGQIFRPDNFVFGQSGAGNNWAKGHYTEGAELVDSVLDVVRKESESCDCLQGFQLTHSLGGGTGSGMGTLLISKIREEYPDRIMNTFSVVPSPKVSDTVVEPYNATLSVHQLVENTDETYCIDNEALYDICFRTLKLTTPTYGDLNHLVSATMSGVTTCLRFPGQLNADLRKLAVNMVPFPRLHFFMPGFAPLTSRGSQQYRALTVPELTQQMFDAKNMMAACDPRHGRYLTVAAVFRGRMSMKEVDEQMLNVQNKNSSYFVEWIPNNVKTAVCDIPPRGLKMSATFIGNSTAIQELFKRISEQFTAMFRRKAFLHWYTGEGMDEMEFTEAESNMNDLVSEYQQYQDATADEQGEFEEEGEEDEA

Turning to `COc1cc(C(=O)c2c[nH]c(-c3ccc(C)cc3)n2)cc(OC)c1OC`, the IC50 in experiment [1] is 25.3 nM; in experiment [2], 11.4 nM; in experiment [3], 12.5 nM; in experiment [4], 18.7 nM; in experiment [5] it was 6.9 nM; in experiment [6], 6.4 nM. For the same compound, the inhibition result in experiment [7] is “Active”.
As to `COc1cc(C(=O)c2cccc(-c3ccsc3)n2)cc(OC)c1OC`, the IC50 in experiment [1] came to 35.5 nM; in experiment [2], 38.5 nM; in experiment [3], 67.3 nM; in experiment [4], 34.1 nM; in experiment [5] it was 28.3 nM; in experiment [6], 27.9 nM.
Consider `COc1cc(C(=O)c2cccc(-c3ccc(C(C)=O)cc3)n2)cc(OC)c1OC`, for which the IC50 in experiment [1] is 104 nM; in experiment [2], 19.1 nM; in experiment [3], 18.8 nM; in experiment [4], 24 nM; in experiment [5], 22.5 nM; in experiment [6], 40.5 nM.
Turning to `COc1cc(C(=O)c2cccc(-c3ccc(C)c(Cl)c3)n2)cc(OC)c1OC`, the IC50 stood at 20 nM in experiment [1]; 13.5 nM in experiment [2]; 13.4 nM in experiment [3]; 24.2 nM in experiment [4]; 16.6 nM in experiment [5]; 22.6 nM in experiment [6].
In the case of `COc1cc(C(=O)c2cccc(-c3ccccc3C)n2)cc(OC)c1OC`, the IC50 amounted to 91.9 nM in experiment [1]; 58.3 nM in experiment [2]; 68 nM in experiment [3]; 52.5 nM in experiment [4]; 27.4 nM in experiment [5]; 54.2 nM in experiment [6].
Consider `COc1cc(C(=O)c2cccc(-c3ccc(N)cc3)n2)cc(OC)c1OC`, for which the IC50 in experiment [1] stood at 27.1 nM; in experiment [2] it was 13.4 nM; in experiment [3], 16.2 nM; in experiment [4] it was 13.2 nM; in experiment [5], 12.1 nM; in experiment [6] it was 9.4 nM.
`COc1cc(C(=O)c2cccc(-c3ccc(C)c(F)c3)n2)cc(OC)c1OC`: the IC50 in experiment [1] was found to be 6.5 nM; in experiment [2] it was 6.5 nM; in experiment [3], 4.4 nM; in experiment [4], 5.9 nM; in experiment [5], 6.7 nM; in experiment [6], 5.6 nM.
Consider `COc1cc(C(=O)c2cnc(-c3c[nH]c4ccccc34)[nH]2)cc(OC)c1OC` [SABIZABULIN], for which the IC50 in experiment [1] was determined as 8.2 nM; in experiment [2], 13.6 nM; in experiment [3], 13.3 nM; in experiment [4], 10.4 nM; in experiment [5] it was 8.9 nM; in experiment [6] it was 8.8 nM.
With `COc1cc(C(=O)c2cccc(-c3ccc(C#N)cc3)n2)cc(OC)c1OC`, the IC50 in experiment [1] was determined as 28.1 nM; in experiment [2], 10.6 nM; in experiment [3] it was 12.3 nM; in experiment [4] it was 12.3 nM; in experiment [5], 12.8 nM; in experiment [6], 11.9 nM.
In the case of `COc1cccc(-c2cccc(C(=O)c3cc(OC)c(OC)c(OC)c3)n2)c1`, the IC50 in experiment [1] was 41.4 nM; in experiment [2] it was 24.5 nM; in experiment [3] it was 42.4 nM; in experiment [4], 41.3 nM; in experiment [5], 34.7 nM; in experiment [6], 42.3 nM.
For the compound `COc1cc(C(=O)c2cccc(-c3ccc4[nH]c5ccccc5c4c3)n2)cc(OC)c1OC`, the concentration for half-maximal inhibition (IC50) is 424 nM in experiment [1]; 301 nM in experiment [2]; 321 nM in experiment [3]; 277 nM in experiment [4]; 293 nM in experiment [5]; 202 nM in experiment [6].
Consider `COc1cc(C(=O)c2ccccn2)cc(OC)c1OC`, for which the IC50 in experiment [1], in experiment [2], in experiment [3], in experiment [4], in experiment [5] and in experiment [6] was above 1000 nM in each case.
As to `COc1cc(C(=O)c2cccc(-c3cncnc3)n2)cc(OC)c1OC`, the IC50 in experiment [1], in experiment [2], in experiment [3], in experiment [4], in experiment [5] and in experiment [6] was above 1000 nM in each case.
In the case of `COc1ccc(-c2cccc(C(=O)c3cc(OC)c(OC)c(OC)c3)n2)cc1`, the IC50 worked out at 50.7 nM in experiment [1]; 18.1 nM in experiment [2]; 19.9 nM in experiment [3]; 27.8 nM in experiment [4]; 27.4 nM in experiment [5]; 32.1 nM in experiment [6].
Consider `COc1cc(C(=O)/C=C/c2cccc(-c3ccc(C)c(O)c3)n2)cc(OC)c1OC`, for which the half-maximal inhibitory concentration (IC50) in experiment [1], in experiment [2], in experiment [3], in experiment [4], in experiment [5] and in experiment [6] was above 1000 nM each time.
As for `COc1cc(C(=O)c2cccc(-c3ccc(O)cc3)n2)cc(OC)c1OC`, the IC50 in experiment [1] stood at 27.7 nM; in experiment [2], 28.5 nM; in experiment [3], 386 nM; in experiment [4], 42.4 nM; in experiment [5], 28.9 nM; in experiment [6] it was 22.2 nM.
Regarding `COc1cc(C(=O)c2cc(F)cc(-c3ccc(C)c(O)c3)c2)cc(OC)c1OC`, the IC50 in experiment [1] is 220 nM; in experiment [2], 47.2 nM; in experiment [3], 86.4 nM; in experiment [4] it was 67 nM; in experiment [5], 30 nM; in experiment [6], 25.2 nM.
Regarding `COc1cc(C(=O)c2cccc(-c3cccc(N)c3)n2)cc(OC)c1OC`, the IC50 in experiment [1] worked out at 34.7 nM; in experiment [2], 25.2 nM; in experiment [3], 38.9 nM; in experiment [4] it was 41.8 nM; in experiment [5], 25.9 nM; in experiment [6], 20.1 nM.
With `COc1cc(C(=O)c2cccc(-c3ccc(C)cc3)n2)cc(OC)c1OC`, the IC50 amounted to 4.9 nM in experiment [1]; 5 nM in experiment [2]; 4.8 nM in experiment [3]; 5.9 nM in experiment [4]; 4.9 nM in experiment [5]; 7.2 nM in experiment [6]. In experiment [7], the inhibition result was “Active”.
As for `COc1cc(C(=O)c2cccc(-c3cc(OC)c(OC)c(OC)c3)n2)cc(OC)c1OC`, the IC50 in experiment [1], in experiment [2], in experiment [3], in experiment [4], in experiment [5] and in experiment [6] was above 1000 nM throughout.
On to `CCc1ccc(-c2cccc(C(=O)c3cc(OC)c(OC)c(OC)c3)n2)cc1`, for which the IC50 in experiment [1] is 21 nM; in experiment [2], 16.5 nM; in experiment [3] it was 22.4 nM; in experiment [4] it was 19.5 nM; in experiment [5], 17.5 nM; in experiment [6], 18.3 nM.
In the case of `COc1cc(C(=O)c2cccc(-c3ccc(C(N)=O)cc3)n2)cc(OC)c1OC`, the IC50 in experiment [1] stood at 39.2 nM; in experiment [2] it was 76.3 nM; in experiment [3], 66.5 nM; in experiment [4], 87.4 nM; in experiment [5] it was 47.9 nM; in experiment [6], 36.3 nM.
For the compound `COc1cc(C(=O)c2cccc(-c3ccc(C)c(O)c3)c2)cc(OC)c1OC`, the IC50 in experiment [1] came out at 35.9 nM; in experiment [2] it was 15.6 nM; in experiment [3] it was 20 nM; in experiment [4], 27.4 nM; in experiment [5] it was 16.2 nM; in experiment [6], 15.7 nM.
With `COc1cc(C(=O)c2cccc(-c3ccc4[nH]ccc4c3)n2)cc(OC)c1OC`, the IC50 in experiment [1] amounted to 17.7 nM; in experiment [2] it was 14.9 nM; in experiment [3] it was 14.9 nM; in experiment [4] it was 7 nM; in experiment [5] it was 6.7 nM; in experiment [6], 7.4 nM.
`COc1cc(C(=O)c2cccc(-c3ccnc4ccccc34)n2)cc(OC)c1OC`: the IC50 in experiment [1], in experiment [2], in experiment [3], in experiment [4], in experiment [5] and in experiment [6] was above 1000 nM each time.
Consider `COc1cc(C(=O)c2cccc(-c3ccc(C)c(N)c3)n2)cc(OC)c1OC`, for which the IC50 in experiment [1] worked out at 2.8 nM; in experiment [2] it was 2.9 nM; in experiment [3] it was 1.6 nM; in experiment [4] it was 3 nM; in experiment [5] it was 3 nM; in experiment [6], 2 nM.
Consider `COc1cc(C(=O)c2cccc(-c3cccc(O)c3)n2)cc(OC)c1OC`, for which the IC50 in experiment [1] came out at 41.4 nM; in experiment [2] it was 29.1 nM; in experiment [3], 101 nM; in experiment [4], 35.8 nM; in experiment [5], 31.4 nM; in experiment [6], 29.9 nM.
Consider `COc1cc(C(=O)c2cccc(-c3cccc(C)c3)n2)cc(OC)c1OC`, for which the IC50 came out at 82.4 nM in experiment [1]; 63.6 nM in experiment [2]; 61 nM in experiment [3]; 62.9 nM in experiment [4]; 46.1 nM in experiment [5]; 60.7 nM in experiment [6].
Regarding `COc1cc(C(=O)c2cccc(-c3ccc(C)c(C)c3)n2)cc(OC)c1OC`, the IC50 in experiment [1] came to 20 nM; in experiment [2], 15.8 nM; in experiment [3], 8.8 nM; in experiment [4] it was 9 nM; in experiment [5], 8.1 nM; in experiment [6] it was 8.4 nM.
Regarding `COc1cc(C(=O)c2cc(-c3ccc(C)cc3)ccn2)cc(OC)c1OC`, the IC50 is 35.2 nM in experiment [1]; 7.1 nM in experiment [2]; 12 nM in experiment [3]; 15.6 nM in experiment [4]; 16.3 nM in experiment [5]; 19.8 nM in experiment [6].
Consider `COc1cc(C(=O)c2cc(O)cc(-c3ccc(C)cc3)n2)cc(OC)c1OC`, for which the IC50 in experiment [1], in experiment [2], in experiment [3], in experiment [4], in experiment [5] and in experiment [6] was above 1000 nM each time.
With `COc1cc(C(=O)c2cccc(-c3cccc4[nH]ccc34)n2)cc(OC)c1OC`, the IC50 in experiment [1] stood at 17.9 nM; in experiment [2], 16 nM; in experiment [3], 19 nM; in experiment [4], 9.3 nM; in experiment [5] it was 12.2 nM; in experiment [6], 6.5 nM.
